Structures can show the parent of a compound that is named as a salt.
How the values were obtained:
[1] = tested on: Tyk2 kinase activity on STAT4; experiment: pSTAT4 cell assay (MSD, NK92 cells); type: cell-based; details: compounds 1 hr, stimulated 15 minutes
Method in brief: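 IC50 values come from 4-parameter logistic fits of normalized percent activity. Phospho-STAT was read by MSD (anti-STAT4 antibodies) in NK92 lysates after a 15 min stimulation with 30 ng/mL IL2. The serum-starved cells had been given compound for 1 h (10 points, four-fold, top 10 μM).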

[2] = target: T1, JH2 domain of human Tyk2 (Homo sapiens, UniProt P29597); experiment: JH2 biochemical assay (TR-FRET probe displacement); type: binding; details: JH2 biochemical assay
T1 construct: 10×His-tagged TYK2 JH2 domain (amino acid 575-876)
T1 sequence (P29597 575-876): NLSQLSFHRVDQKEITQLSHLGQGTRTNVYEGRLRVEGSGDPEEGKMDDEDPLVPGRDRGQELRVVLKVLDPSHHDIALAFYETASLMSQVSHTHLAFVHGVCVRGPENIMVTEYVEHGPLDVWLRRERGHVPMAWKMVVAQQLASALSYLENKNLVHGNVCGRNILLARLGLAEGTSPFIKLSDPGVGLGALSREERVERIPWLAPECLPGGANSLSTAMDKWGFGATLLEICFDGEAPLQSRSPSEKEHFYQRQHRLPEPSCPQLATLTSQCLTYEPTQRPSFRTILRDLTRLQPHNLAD
Method in brief: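 A probe-displacement TR-FRET readout: compounds, tested in 3-fold, 10-point dilutions starting at […], compete with 2 nM tracer for 2 nM His-tagged JH2 (residues 575-876) detected by 0.1 nM Tb-anti-His over 60 min. IC50 comes from 4-parameter fits of normalized 520/495 nm ratios.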

[3] = tested on: JAK2 kinase activity on STAT5; experiment: pSTAT5 cell assay (MSD, TF1 cells, IL-3 stimulated); type: cell-based; details: Homo sapiens, TF-1, compounds 1 hour, 30 ng/mL IL-3 for 15 minutes
Experimental: Compounds of the disclosure were assessed for their ability to inhibit the JAK2 kinase activity on STAT5 utilizing an MSD-platform plate-based assay format. TF1 cells natively expressing STAT5 and JAK2 were serum-starved to reduce background phosphorylation levels, then cells were treated with compounds of disclosure for 1 hour with a 10-point four-fold dilution series starting at 10 μM. Cells were then stimulated with 30 ng/mL IL-3 for 15 minutes. Cells were then lysed and pSTAT5 levels were quantitated using an MSD plate-based assay with anti-STAT5 antibodies. The data were normalized and the percent activity versus log concentration of compound was fitted with a 4-parameter logistic model to generate a curve and an IC50 value.

[4] = tested on: JAK1 kinase activity on STAT3; experiment: pSTAT3 cell assay (MSD, TF1 cells, IL-6 stimulated); type: cell-based; details: Homo sapiens, TF-1, compounds 1 hour, 30 ng/mL IL-6 for 15 minutes
Experimental: The inhibitory potency of compounds of the disclosure against the JAK1 kinase activity on STAT3 was evaluated using an MSD-platform plate-based assay format. TF1 cells natively expressing STAT3 and JAK1 were serum-starved to reduce background phosphorylation levels, then cells were treated with compounds of the disclosure for 1 hour with a 10-point four-fold dilution series starting at 10 μM. Cells were then stimulated with 30 ng/mL interleukin 6 (IL-6) for 15 minutes. Cells were lysed and pSTAT3 levels were quantitated using an MSD plate-based assay with anti-STAT3 antibodies. The data were normalized and the percent activity versus log concentration of compound was fitted with a 4-parameter logistic model to generate IC50 curves.

Row | SMILES | IC50 [1] [nM] | IC50 [2] [nM] | IC50 [3] [nM] | IC50 [4] [nM]
1 | COc1cc(C(C)(F)F)nc(N2CC3(CC3)c3cnc(NC(C)=O)cc32)n1 [Example 2, N-(1′-(4-(1,1-difluoroethyl)-6-methoxypyrimidin-2-yl)-1′,2′-dihydrospiro[cyclopropane-1,3′-pyrrolo[3,2-c]pyridin]-6′-yl)acetamide] | 100 to 1000 | ≤ 10 | ≥ 1000 | ≥ 1000
2 | COc1cc(N2CC3(CC3)c3cnc(NC(C)=O)cc32)nc(C(C)(F)F)c1 [Example 9, N-(1′-(6-(1,1-difluoroethyl)-4-methoxypyridin-2-yl)-1′,2′-dihydrospiro[cyclopropane-1,3′-pyrrolo[3,2-c]pyridin]-6′-yl)acetamide] | 10 to 100 | ≤ 10 | ≥ 1000 | ≥ 1000
3 | CNc1cc(N2CC3(CC3)c3cnc(NC(C)=O)cc32)nc(C(C)(F)F)n1 [Example 10, N-(1′-(2-(1,1-difluoroethyl)-6-(methylamino)pyrimidin-4-yl)-1′,2′-dihydrospiro[cyclopropane-1,3′-pyrrolo[3,2-c]pyridin]-6′-yl)acetamide] | 10 to 100 | ≤ 10 | ≥ 1000 | ≥ 1000
4 | CCc1cc(N2CC3(CC3)c3cnc(NC(C)=O)cc32)nc(C(C)(F)F)n1 [Example 11, N-(1′-(2-(1,1-difluoroethyl)-6-ethylpyrimidin-4-yl)-1′,2′-dihydrospiro[cyclopropane-1,3′-pyrrolo[3,2-c]pyridin]-6′-yl)acetamide] | 10 to 100 | ≤ 10 | ≥ 1000 | ≥ 1000
5 | CC(=O)Nc1cc2c(cn1)C1(CC1)CN2c1cccc(C(C)(F)F)n1 [Example 12, N-(1′-(6-(1,1-difluoroethyl)pyridin-2-yl)-1′,2′-dihydrospiro[cyclopropane-1,3′-pyrrolo[3,2-c]pyridin]-6′-yl)acetamide] | 10 to 100 | ≤ 10 | ≥ 1000 | ≥ 1000
6 | CC(=O)Nc1cc2c(cn1)C1(CC1)CN2c1ccnc(C(C)(F)F)n1 [Example 13, N-(1′-(2-(1,1-difluoroethyl)pyrimidin-4-yl)-1′,2′-dihydrospiro[cyclopropane-1,3′-pyrrolo[3,2-c]pyridin]-6′-yl)acetamide] | 100 to 1000 | 10 to 100 | ≥ 1000 | ≥ 1000
7 | CC(=O)Nc1cc2c(cn1)C1(CC1)CN2c1nccc(C(C)(F)F)n1 [Example 14, N-(1′-(4-(1,1-difluoroethyl)pyrimidin-2-yl)-1′,2′-dihydrospiro[cyclopropane-1,3′-pyrrolo[3,2-c]pyridin]-6′-yl)acetamide] | 100 to 1000 | 10 to 100 | ≥ 1000 | ≥ 1000
8 | CC(=O)Nc1cc2c(cn1)C1(CC1)CN2c1cccc(C2CCOC2)n1 (stereo not shown) [Example 16, N-(1′-(6-(tetrahydrofuran-3-yl)pyridin-2-yl)-1′,2′-dihydrospiro[cyclopropane-1,3′-pyrrolo[3,2-c]pyridin]-6′-yl)acetamide] | 10 to 100 | ≤ 10 | ≥ 1000 | ≥ 1000
9 | CC(=O)Nc1cc2c(cn1)C1(CC1)CN2c1ccnc(C(C)(C)F)n1 [Example 17, N-(1′-(2-(2-fluoropropan-2-yl)pyrimidin-4-yl)-1′,2′-dihydrospiro[cyclopropane-1,3′-pyrrolo[3,2-c]pyridin]-6′-yl)acetamide] | 100 to 1000 | ≤ 10 | ≥ 1000 | ≥ 1000
10 | COC1(c2cccc(N3CC4(CC4)c4cnc(NC(C)=O)cc43)n2)CCOC1 (stereo not shown) [Example 18, N-(1′-(6-(3-methoxytetrahydrofuran-3-yl)pyridin-2-y1)-1′,2′-dihydrospiro[cyclopropane-1,3′-pyrrolo[3,2-c]pyridin]-6′-yl)acetamide] | 10 to 100 | ≤ 10 | ≥ 1000 | ≥ 1000
11 | CC(=O)Nc1cc2c(cn1)C1(CC1)CN2c1cccc(C2(O)CCOC2)n1 (stereo not shown) [Example 19, N-(1′-(6-(3-hydroxytetrahydrofuran-3-yl)pyridin-2-yl)-1′,2′-dihydrospiro[cyclopropane-1,3′-pyrrolo[3,2-c]pyridin]-6′-yl)acetamide] | 10 to 100 | ≤ 10 | ≥ 1000 | ≥ 1000
12 | CC(=O)Nc1cc2c(cn1)C1(CC1)CN2c1cc(C2CC2)nc(C(C)(F)F)n1 [Example 21, N-(1′-(6-cyclopropyl-2-(1,1-difluoroethyl)pyrimidin-4-yl)-1′,2′-dihydrospiro[cyclopropane-1,3′-pyrrolo[3,2-c]pyridin]-6′-yl)acetamide] | 10 to 100 | ≤ 10 | ≥ 1000 | ≥ 1000
13 | CC(=O)Nc1cc2c(cn1)CCN2c1cccc(C(C)(F)F)n1 [Example 32, N-(1-(6-(1,1-difluoroethyl)pyridin-2-yl)-2,3-dihydro-1H-pyrrolo[3,2-c]pyridin-6-yl)acetamide] | ≥ 1000 | 10 to 100 | ≥ 1000 | ≥ 1000
14 | CC(=O)Nc1cc2c(cn1)C1(CC1C)CN2c1ccnc(C(C)(F)F)n1 (stereo not shown) [Example 37, N-(1′-(2-(1,1-difluoroethyl)pyrimidin-4-yl)-2-methyl-1′,2′-dihydrospiro[cyclopropane-1,3′-pyrrolo[3,2-c]pyridin]-6′-yl)acetamide] | ≥ 1000 | 10 to 100 | ≥ 1000 | ≥ 1000
15 | CC(=O)Nc1cc2c(cn1)C(C)(C)CN2c1ccnc(C(C)(F)F)n1 [Example 38, N-(1-(2-(1,1-difluoroethyl)pyrimidin-4-yl)-3,3-dimethyl-2,3-dihydro-1H-pyrrolo[3,2-c]pyridin-6-yl)acetamide] | ≥ 1000 | ≥ 1000 | ≥ 1000 | ≥ 1000
16 | CC(=O)Nc1cc2c(cn1)C(C)(C)CN2c1nccc(C(C)(F)F)n1 [Example 39, N-(1-(4-(1,1-difluoroethyl)pyrimidin-2-yl)-3,3-dimethyl-2,3-dihydro-1H-pyrrolo[3,2-c]pyridin-6-yl)acetamide] | ≥ 1000 | ≥ 1000 | ≥ 1000 | ≥ 1000
17 | CC(=O)Nc1cc2c(cn1)C1(CCC1)CN2c1ccnc(C(C)(F)F)n1 [Example 41, N-(1′-(2-(1,1-difluoroethyl)pyrimidin-4-yl)-1′,2′-dihydrospiro[cyclobutane-1,3′-pyrrolo[3,2-c]pyridin]-6′-yl)acetamide] | ≥ 1000 | 10 to 100 | ≥ 1000 | ≥ 1000
18 | CC(=O)Nc1cc2c(cn1)C1(CCC1)CN2c1cccc(C(C)(F)F)n1 [Example 42, N-(1′-(6-(1,1-difluoroethyl)pyridin-2-yl)-1′,2′-dihydrospiro[cyclobutane-1,3′-pyrrolo[3,2-c]pyridin]-6′-yl)acetamide] | ≥ 1000 | 10 to 100 | ≥ 1000 | ≥ 1000
19 | COCCNc1cc(N2CC3(CC3)c3cnc(NC(C)=O)cc32)nc(C(C)(F)F)n1 [Example 49, N-(1′-(2-(1,1-difluoroethyl)-6-((2-methoxyethyl)amino)pyrimidin-4-yl)-1′,2′-dihydrospiro[cyclopropane-1,3'-pyrrolo[3,2-c]pyridin]-6'-yl)acetamide] | 10 to 100 | ≤ 10 | ≥ 1000 | ≥ 1000
20 | CC(=O)Nc1cc2c(cn1)C(C)(C)CN2c1cccc(C(C)(F)F)n1 [Example 76, N-(1-(6-(1,1-difluoroethyl)pyridin-2-yl)-3,3-dimethyl-2,3-dihydro-1H-pyrrolo[3,2-c]pyridin-6-yl)acetamide trifluoroacetate] | ≥ 1000 | 100 to 1000 | ≥ 1000 | ≥ 1000
21 | CC(=O)Nc1cc2c(cn1)C1(CC1)CN2c1nc(C)cc(C(C)(F)F)n1 [Example 83, N-(1′-(4-(1,1-difluoroethyl)-6-methylpyrimidin-2-yl)-1′,2′-dihydrospiro[cyclopropane-1,3′-pyrrolo[3,2-c]pyridin]-6′-yl)acetamide] | 100 to 1000 | ≤ 10 | ≥ 1000 | ≥ 1000
22 | CC(=O)Nc1cc2c(cn1)C1(CC1)CN2c1cccc(C2COC2)n1 [Example 84, N-(1′-(6-(oxetan-3-yl)pyridin-2-yl)-1′,2′-dihydrospiro[cyclopropane-1,3′-pyrrolo[3,2-c]pyridin]-6′-yl)acetamide] | ≥ 1000 | 10 to 100 | ≥ 1000 | ≥ 1000

— patent US20260258032A1, “TYROSINE KINASE 2 INHIBITORS AND USES THEREOF” (BIOGEN MA INC., priority 2022, published 2026)
